Measurements as given in publication PMC6435784, “Gut Microbiota-Based Pharmacokinetics and the Antidepressant Mechanism of Paeoniflorin” (Frontiers in Pharmacology, 2019).
Where two headings read alike, the source gives them in different places.

Experiments:
Format in all cases: in vivo, rat
[1] = Excretion of paeoniflorin in rats (urine, feces, bile); conditions: normal rats, paeoniflorin 20 mg/kg, excreted form = labelled substance, n = 6
[2] = Pharmacokinetics of paeoniflorin in normal SD rats (plasma, LC-MS/MS); conditions: for MRT last: read-out: MRT (0-t); for MRT inf: read-out: MRT (0-∞); for half-life: read-out: t1/2z (converted)
Experimental: Chromatography separation was performed using an XSS T3 column (3.5 μm, 2.1 mm × 100 mm, Waters, Milford, MA, United States) with the column temperature maintained at 40°C at a flow rate of 0.4 mL/min. […] The gradient was as follows: 25% eluent B for 2 min; 25–85% B from 2 to 4 min; 85–25% B from 4 to 5 min and held at 25% from 5 to 7 min. The autosampler temperature was set to 4°C. Mass spectrometry was carried out using multiple reaction monitoring mode (MRM). […] The nebulizing gas flow rate was 2.8 L/min, the drying gas flow rate was 10 L/min, and the heating gas flow rate was 10 L/min. […] Plasma samples were immediately stored at 4°C until analysis. The method validation assays were carried out in terms of specificity, linearity, sensitivity, accuracy, precisions, recovery, matrix effect and stability. […] Statistical analyses were conducted using two-way ANOVA and Student’s t-test with GraphPad Prism Version 5 (GraphPad Software, La Jolla, CA, United States). The data are expressed as the means ± standard deviation. […] DAS 3.0 was used to calculate the plasma pharmacokinetic parameters.

[3] = Brain distribution of paeoniflorin and benzoic acid in rats; conditions: at 2 h after oral administration of paeoniflorin 20 mg/kg
[4] = SD, rat, plasma, intravenous 2 mg/kg, normal rats, n = 5
[5] = SD, rat, plasma, normal rats, oral 20 mg/kg, n = 6
[6] = SD, rat, normal rats, oral paeoniflorin 20 mg/kg, plasma analyte = labelled substance, n = 6
[7] = normal rats, oral 20 mg/kg, n = 6
[8] = normal rats, oral paeoniflorin 20 mg/kg, plasma analyte = labelled substance, n = 6

C[C@@]12C[C@@]3(O)O[C@@H](O1)[C@]1(COC(=O)c4ccccc4)[C@H]3C[C@@]12O[C@@H]1O[C@H](CO)[C@@H](O)[C@H](O)[C@H]1O [Paeoniflorin]
cumulative excretion rate in bile for 60 h [1]: 0.02%
AUC(0-t) ([2]; SD, rat, plasma, iv, 2 mg/kg, intravenous 2 mg/kg, normal rats, n = 5, read-out: AUC (0-t)): 1060 ± 326 ng·h/mL
bioavailability ([2]; SD, rat, plasma, oral, rats, oral 20 mg/kg vs intravenous 2 mg/kg, F = AUCT·Div/AUCiv·DT × 100%, read-out: absolute (oral) bioavailability): 2.32%
AUC(0-t) ([2]; SD, rat, plasma, po, 20 mg/kg, normal rats, oral paeoniflorin 20 mg/kg, plasma analyte = labelled substance, Figures 2C, 3B, 3C, read-out: AUC(0-t) (unit inferred)): 245 ng·h/mL
Cmax ([2]; SD, rat, plasma, po, 20 mg/kg, normal rats, oral paeoniflorin 20 mg/kg, plasma analyte = labelled substance, Figures 2C, 3B, 3C, read-out: Cmax (unit inferred)): 119 ng/mL
AUC(0-t) ([2]; SD, rat, plasma, po, 20 mg/kg, normal rats, oral paeoniflorin 20 mg/kg, plasma analyte = labelled substance, n = 6, read-out: AUC (0-t)): 245 ± 72.8 ng·h/mL
Cmax ([2]; SD, rat, plasma, po, 20 mg/kg, normal rats, oral paeoniflorin 20 mg/kg, plasma analyte = labelled substance, n = 6, read-out: Cmax): 119 ± 54.3 ng/mL
AUC(0-inf) [2, 4]: 1070 ± 325 ng·h/mL
clearance ([2]; SD, rat, plasma, intravenous 2 mg/kg, normal rats, n = 5, read-out: CLz (converted)): 33.3 mL/min/kg
MRT last [2, 4]: 0.903 ± 0.122 h
MRT inf [2, 4]: 0.981 ± 0.07 h
Vd ([2]; SD, rat, plasma, intravenous 2 mg/kg, normal rats, n = 5, read-out: Vz): 6.09 ± 3.11 L/kg
half-life [2, 4]: 2.06 ± 0.771 h
MRT last [2, 5]: 2 ± 0.353 h
MRT inf [2, 5]: 2.04 ± 0.368 h
AUC(0-inf) [2, 6]: 246 ± 72.8 ng·h/mL
Tmax [2, 6]: 0.458 ± 0.195 h
half-life [2, 6]: 1.3 ± 0.474 h
CLz [2, 7]: 1473 ± 483.58 mL/min/kg
Vz [2, 7]: 161.261 ± 82.928 L/kg
AUC(0-t) [2, 8]: 245.29 ± 72.811 ng·h/mL
Cmax [2, 8]: 119.36 ± 54.3 ng/mL
absolute (oral) bioavailability ([2]; rats, oral 20 mg/kg vs intravenous 2 mg/kg, F = AUCT·Div/AUCiv·DT × 100%): 2.3%
detection in SD rat brains [3]: not detected
